The record followed here is patent US7928134B2, “5-aryl-4,5-dihydro-(1H)-pyrazolines as cannabinoid CB1 receptor agonists” (Solvay Pharmaceuticals B.V., priority 2007, dated 2011).

Experiment [1] has as its target T1, human cannabinoid CB1 receptor (Homo sapiens, UniProt P21554).
T1 construct: expressed in transfected cells; host or cells: Chinese hamster ovary (CHO) cells, membrane preparations
The experiment can be described thus: In vitro affinity for cannabinoid-CB1 receptors ([3H]CP-55,940 radioligand binding). The following applies: membranes of CHO cells stably transfected with human CB1, read-out: receptor binding Human CB1 affinity pKi (converted). On the procedure: In Vitro Affinity for Cannabinoid-CB1 Receptors
The affinity of the compounds of the invention for cannabinoid CB1 receptors can be determined using membrane preparations of Chinese hamster ovary (CHO) cells in which the human cannabinoid CB1 receptor is stably transfected in conjunction with [^3H]CP-55,940 as radioligand. After incubation of a freshly prepared cell membrane preparation with the [^3H]-ligand, with or without addition of one or more compounds of the invention, separation of bound and free ligand is performed by filtration over glassfiber filters. Radioactivity on the filter is measured by liquid scintillation counting.

Experiment [2] has as its target T2, human cannabinoid CB2 receptor (Homo sapiens, UniProt P34972).
T2 construct: expressed in transfected cells; host or cells: CHO cells, membrane preparations
The experiment can be described thus: In vitro affinity for cannabinoid-CB2 receptors ([3H]CP-55,940 radioligand binding). The following applies: membranes of CHO cells stably transfected with human CB2, read-out: receptor binding Human CB2 affinity pKi (converted). How it is done: In Vitro Affinity for Cannabinoid-CB2 Receptors
The affinity of the compounds of the invention for cannabinoid CB2 receptors can be determined using membrane preparations of CHO cells in which the human cannabinoid CB2 receptor is stably transfected in conjunction with [^3H]CP-55,940 as radioligand. After incubation of a freshly prepared cell membrane preparation with the [^3H]-ligand, with or without addition of one or more compounds of the invention, separation of bound and free ligand is performed by filtration over glassfiber filters. Radioactivity on the filter is measured by liquid scintillation counting.

The next experiment addresses T3, human CB1 receptor (Homo sapiens, UniProt P21554).
T3 construct: expressed in transfected cells; host or cells: CHO cells
The experiment is described as follows: In vitro cannabinoid-CB1 receptor (ant)agonism ([3H]-arachidonic acid release in CHO cells). It is filed as cell-based. The following applies: human CB1 receptor cloned in CHO cells; for EC50: read-out: Functional CB1 assays Human CB1 agonism pEC50 (converted). How it is done:
In Vitro Cannabinoid-CB1 Receptor (Ant)Agonism
In vitro CB1 receptor antagonism/agonism can be assessed with the human CB1 receptor cloned in CHO cells. CHO cells are grown in a Dulbecco's Modified Eagle's medium (DMEM) culture medium, supplemented with 10% heat-inactivated fetal calf serum. Medium is aspirated and replaced by DMEM, without fetal calf serum, but containing [^3H]-arachidonic acid and incubated overnight in a cell culture stove (5% CO2/95% air; 37° C.; water-saturated atmosphere). During this period [^3H]-arachidonic acid is incorporated in membrane phospholipids. On the test day, medium is aspirated and cells are washed three times using 0.5 ml DMEM, containing 0.2% bovine serum albumin (BSA). CB1 agonist stimulation leads to activation of PLA2 followed by release of [^3H]-arachidonic acid into the medium. This CB1 agonist-induced release is concentration-dependently antagonized by CB1 receptor antagonists, such as for example rimonabant.

T2 sequence (P34972 whole entry): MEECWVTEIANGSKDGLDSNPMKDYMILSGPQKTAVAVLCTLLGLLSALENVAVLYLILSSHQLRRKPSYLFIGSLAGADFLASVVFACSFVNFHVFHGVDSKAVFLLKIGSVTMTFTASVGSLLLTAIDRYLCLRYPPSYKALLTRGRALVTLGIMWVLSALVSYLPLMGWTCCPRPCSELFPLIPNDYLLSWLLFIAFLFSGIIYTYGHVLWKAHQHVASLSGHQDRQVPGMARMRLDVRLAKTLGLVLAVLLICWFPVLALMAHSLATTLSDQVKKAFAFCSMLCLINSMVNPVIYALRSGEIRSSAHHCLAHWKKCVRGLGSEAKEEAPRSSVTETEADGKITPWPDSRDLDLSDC
T3 sequence (P21554 whole entry): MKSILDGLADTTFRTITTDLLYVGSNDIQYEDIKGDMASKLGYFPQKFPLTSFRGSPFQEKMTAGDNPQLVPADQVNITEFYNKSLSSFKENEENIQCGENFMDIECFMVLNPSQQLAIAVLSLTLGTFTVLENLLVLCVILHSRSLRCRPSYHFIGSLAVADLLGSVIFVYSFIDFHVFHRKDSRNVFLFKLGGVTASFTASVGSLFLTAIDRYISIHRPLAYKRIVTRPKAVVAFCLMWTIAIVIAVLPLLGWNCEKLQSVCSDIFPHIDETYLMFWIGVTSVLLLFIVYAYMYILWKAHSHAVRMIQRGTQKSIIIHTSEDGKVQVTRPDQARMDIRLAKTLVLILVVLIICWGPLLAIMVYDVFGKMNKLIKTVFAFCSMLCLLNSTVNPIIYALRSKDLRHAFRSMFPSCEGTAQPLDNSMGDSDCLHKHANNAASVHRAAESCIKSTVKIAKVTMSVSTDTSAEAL
T1 sequence (P21554 whole entry): as above

With `CCCCCN1N=C(C(=O)NC(C)c2ccccc2)CC1c1ccccc1` (mixture of isomers) [Compound 14, N-(1-Phenyl-ethyl)-1-(n-pentyl)-5-phenyl-4,5-dihydro-(1H)-pyrazole-3-carboxamide], the Ki in experiment [1] was 31.6 nM; in experiment [2], 251 nM. Besides, the EC50 at human CB1 receptor was 501 nM.
As for `CCCCCN1N=C(C(=O)NCc2cccc(C(F)(F)F)c2)CC1c1ccccc1` (racemic) [Compound 22], the figures for the Ki in experiment [1] and in experiment [2] were 63.1 nM and 316 nM, respectively. Also, at human CB1 receptor, the EC50 was 79.4 nM.
Turning to `CCCCN1N=C(C(=O)NC(C)(C)c2ccccc2)[C@@H](C)[C@@H]1c1ccccc1` (relative stereo) [Compound 37, N-(1-Phenyl-1-methyl-ethyl)-1-(n-butyl)-trans-4-methyl-5-phenyl-4,5-dihydro-(1H)-pyrazole-3-carboxamide], the Ki in experiment [1] is 15.8 nM; in experiment [2], 100 nM. Further, the EC50 at human CB1 receptor is 7.94 nM.
Turning to `CCCCCN1N=C(C(=O)NC2C3CC4CC(C3)CC2C4)CC1c1ccccc1` (stereo not drawn) [Compound 1, N-(Adamant-2-yl)-1-(n-pentyl)-5-phenyl-4,5-dihydro-(1H)-pyrazole-3-carboxamide], the Ki is 7.94 nM in experiment [1] and 5.01 nM in experiment [2]. In addition, the “Functional CB1 assays Human CB1 agonism pEC50” value at human CB1 receptor is 8.1.
For the compound `CCCCCN1N=C(C(=O)Nc2cccc3ccccc23)CC1c1ccccc1` (stereo not drawn) [Compound 4, N-(Napht-1-yl)-1-(n-pentyl)-5-phenyl-4,5-dihydro-(1H)-pyrazole-3-carboxamide], the Ki is 31.6 nM in experiment [1] and 79.4 nM in experiment [2]. The EC50 on human CB1 receptor was 39.8 nM.
On to `CCCCCN1N=C(C(=O)NCc2cccnc2)CC1c1ccccc1` (stereo not drawn) [Compound 7, N-(Pyridin-3-ylmethyl)-1-(n-pentyl)-5-phenyl-4,5-dihydro-(1H)-pyrazole-3-carboxamide], for which the Ki was 126 nM in experiment [1] and 501 nM in experiment [2]. In addition, on human CB1 receptor, the EC50 is 631 nM.
The like results for `CCCCCN1N=C(C(=O)NC2CC3CCC2C3)CC1c1ccccc1` (stereo not drawn) [Compound 12, N-(Exo-bicyclo[2.2.1]hept-2-yl)-1-(n-pentyl)-5-phenyl-4,5-dihydro-(1H)-pyrazole-3-carboxamide] were, in that order, 79.4 nM, 39.8 nM and 39.8 nM.
The like results for `CCCCCN1N=C(C(=O)NC23CC4CC(CC(C4)C2)C3)CC1c1ccccc1` (stereo not drawn) [Compound 27, N-(Adamantyl)-1-(n-pentyl)-5-phenyl-4,5-dihydro-(1H)-pyrazole-3-carboxamide] were, in that order, 15.8 nM, 7.94 nM and 12.6 nM.
`CCCCCN1N=C(C(=O)NC(C)(C)c2ccccc2)CC1c1ccccc1` (stereo not drawn) [Compound 28, N-(1-Phenyl-1-methyl-ethyl)-1-(n-pentyl)-5-phenyl-4,5-dihydro-(1H)-pyrazole-3-carboxamide]: the Ki in experiment [1] is 6.31 nM; in experiment [2] it was 100 nM. Also, on human CB1 receptor, the EC50 was 7.94 nM.
For `CCCCCN1N=C(C(=O)NC(C)(C)c2ccccc2)CC1c1ccccn1` (stereo not drawn) [Compound 32, N-(1-Phenyl-1-methyl-ethyl)-1-(n-pentyl)-5-(pyrid-2-yl)-4,5-dihydro-(1H)-pyrazole-3-carboxamide], in that order: 7.94 nM, 10 nM and 39.8 nM.
Regarding `CCCCCN1N=C(C(=O)N[C@H]2C[C@H]3CC[C@]2(C)C3(C)C)CC1c1ccccc1F` (stereo partly drawn) [Compound 101, N-[endo-(1R,2S,4R)-1,7,7-trimethylbicyclo[2.2.1]hept-2-yl]-1-(n-pentyl)-5-(2-fluorophenyl)-4,5-dihydro-(1H)-pyrazole-3-carboxamide], the Ki was 6.31 nM in experiment [1] and 7.94 nM in experiment [2]. Moreover, the EC50 at human CB1 receptor was 6.31 nM.
In the case of `CCCCN1N=C(C(=O)NC(C)(C)c2ccccc2)CC1c1ccccc1` (stereo not drawn) [Compound 102, N-(1-phenyl-1-methyl-ethyl)-1-(n-butyl)-5-phenyl-4,5-dihydro-(1H)-pyrazole-3-carboxamide], the Ki in experiment [1] and in experiment [2] was 39.8 nM each time. Moreover, the EC50 on human CB1 receptor is 100 nM.
Regarding `CCCCN1N=C(C(=O)N[C@H]2C[C@H]3CC[C@]2(C)C3(C)C)CC1c1ccccc1` (stereo partly drawn) [Compound 103, N-[endo-(1R,2S,4R)-1,7,7-trimethylbicyclo[2.2.1]hept-2-yl]-1-(n-butyl)-5-phenyl-4,5-dihydro-(1H)-pyrazole-3-carboxamide], the Ki in experiment [1] is 79.4 nM; in experiment [2] it was 25.1 nM. Besides, the EC50 at human CB1 receptor was 31.6 nM.
With `CCCCCN1N=C(C(=O)N[C@H]2C[C@H]3CC[C@]2(C)C3(C)C)CC1c1ccccc1` (stereo partly drawn) [Compound 104, N-[endo-(1R,2S,4R)-1,7,7-trimethylbicyclo[2.2.1]hept-2-yl]-1-(n-pentyl)-5-phenyl-4,5-dihydro-(1H)-pyrazole-3-carboxamide], the figures for the Ki in experiment [1] and in experiment [2] were 6.31 nM and 25.1 nM, respectively. Also, the EC50 at human CB1 receptor was 3.16 nM.
As to `CCCCCN1N=C(C(=O)NC(C)(C)c2ccc(F)cc2)CC1c1ccccc1` (stereo not drawn) [Compound 105, N-(1-(4-fluorophenyl)-1-methyl-ethyl)-1-(n-pentyl)-5-phenyl-4,5-dihydro-(1H)-pyrazole-3-carboxamide], the Ki in experiment [1] was 15.8 nM; in experiment [2], 126 nM. The EC50 at human CB1 receptor was 1.58 nM.
The like results for `CC(C)(NC(=O)C1=NN(CC2CCCCC2)C(c2ccccc2)C1)c1ccc(F)cc1` (stereo not drawn) [Compound 108, N-[1-(4-fluorophenyl)-1-methyl-ethyl]-1-cyclohexylmethyl-5-phenyl-4,5-dihydro-(1H)-pyrazole-3-carboxamide] were, in that order, 25.1 nM, 31.6 nM and 15.8 nM.
The like results for `CC(C)CN1N=C(C(=O)N[C@H]2C[C@H]3CC[C@]2(C)C3(C)C)CC1c1ccccc1` (stereo partly drawn) [Compound 110, N-[endo-(1R,2S,4R)-1,7,7-trimethylbicyclo[2.2.1]hept-2-yl]-1-isobutyl-5-phenyl-4,5-dihydro-(1H)-pyrazole-3-carboxamide] were, in that order, 50.1 nM, 50.1 nM and 316 nM.
